ChEMBL document CHEMBL3596126, “Synthesis, molecular docking and anticancer studies of peptides and iso-peptides” (Bioorg Med Chem Lett, 2015)
Where a SMILES comes first, the peptide text is derived from it. Side-chain parts run from the residue outwards. The star is where a group is joined. Cbz = O=C(OCc1ccccc1)*; Boc = CC(C)(C)OC(=O)*

Key:
MCF7 = assay: Cytotoxicity against human MCF7 cells assessed as cell survival at 20 ug/ml relative to control; format: functional; conditions: read-out: Survival
MDA-MB-231 = assay: Cytotoxicity against human MDA-MB-231 cells assessed as cell survival at 20 ug/ml relative to control; format: functional; conditions: read-out: Survival
[1] = Cytotoxicity against HEK293 cells assessed as cell survival at 20 ug/ml after 6 hrs by SRB assay relative to control; format: cell-based; conditions: human, read-out: Survival
[2] = target: NAD(P)H dehydrogenase [quinone] 1 (Mus musculus) (UniProt Q64669); assay: Activation of Quinone reductase-1 in mouse Hepa-1c1c7 cells assessed as induction ratio at 20 ug/ml after 48 hrs by MTT assay; format: cell-based
HEK293 = assay: Inhibition of TNF-alpha activated nuclear factor-kappa B in HEK293 cells at 20 ug/ml after 6 hrs by luciferase reporter gene assay relative to control; format: cell-based; conditions: Homo sapiens
[3] = Inhibition of TNF-alpha activated nuclear factor-kappa B in HEK293 cells after 6 hrs by luciferase reporter gene assay; format: cell-based; conditions: Homo sapiens, HEK293, 6 h

Sequence of NAD(P)H dehydrogenase [quinone] 1 (Mus musculus) (Q64669 whole entry): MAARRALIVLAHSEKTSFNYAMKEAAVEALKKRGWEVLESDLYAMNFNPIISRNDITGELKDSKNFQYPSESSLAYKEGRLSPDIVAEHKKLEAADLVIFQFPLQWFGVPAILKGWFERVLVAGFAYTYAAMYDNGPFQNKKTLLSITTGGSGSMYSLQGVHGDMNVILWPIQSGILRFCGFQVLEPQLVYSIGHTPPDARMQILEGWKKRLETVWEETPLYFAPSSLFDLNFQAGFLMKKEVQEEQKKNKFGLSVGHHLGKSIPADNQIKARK

Compound	viability at 20 µg/mL (MCF7)	viability at 20 µg/mL (MDA-MB-231)	viability at 6 h, 20 ug/ml [1]	Ratio [2]	inhibition (HEK293)	IC50 [3]
C[C@H](NC(=O)OCc1ccccc1)C(=O)N[C@H](CO)C(=O)O	66.3%	94.9%	123%	0.9	10.7%	–
O=C(N[C@@H](Cc1ccccc1)C(=O)n1nnc2ccccc21)OCc1ccccc1	74.2%	98%	104%	1.3	–	–
CC(C)(C)OC(=O)NCC(=O)n1nnc2ccccc21	90.3%	108%	110%	1.1	41.3%	–
C[C@H](O)[C@H](NC(=O)[C@H](Cc1ccccc1)NC(=O)OCc1ccccc1)C(=O)O	58.3%	104%	122%	2.2	55.7%	–
CC(C)(C)OC(=O)NCC(=O)OC[C@@H](NC(=O)[C@H](Cc1ccccc1)NC(=O)OCc1ccccc1)C(=O)O	126%	106%	121%	1.1	10.1%	–
O=C(N[C@@H](Cc1ccccc1)C(=O)NCC(=O)n1nnc2ccccc21)OCc1ccccc1	93.2%	106%	96.9%	0.9	12.2%	–
C[C@H](NC(=O)OC(C)(C)C)C(=O)n1nnc2ccccc21	75.8%	90.9%	122%	1.2	35.7%	–
C[C@H](NC(=O)OCc1ccccc1)C(=O)N[C@H](C(=O)O)[C@H](C)O	106%	92.8%	116%	1.7	–	–
C[C@H](NC(=O)OCc1ccccc1)C(=O)N[C@@H](CO)C(=O)O	78.6%	98.1%	110%	1.1	13.9%	–
C[C@H](NC(=O)OCc1ccccc1)C(=O)N[C@@H](COC(=O)CNC(=O)OC(C)(C)C)C(=O)O (Cbz-Ala-Ser([Gly-Boc])-OH)	110%	104%	108%	2.5	22%	–
C[C@H](NC(=O)OCc1ccccc1)C(=O)N[C@@H](Cc1ccccc1)C(=O)n1nnc2ccccc21	59.3%	91.4%	104%	1.2	49.6%	–
c1ccc2[nH]nnc2c1 [BENZOTRIAZOLE]	104%	103%	99.7%	1.2	3.6%	–
C[C@H](NC(=O)OCc1ccccc1)C(=O)N[C@@H](Cc1ccccc1)C(=O)O	63.9%	98.9%	113%	1.1	18.7%	–
O=C(N[C@@H](Cc1ccccc1)C(=O)N[C@H](CO)C(=O)O)OCc1ccccc1	69.5%	97.4%	122%	1.5	24.5%	–
C[C@H](OC(=O)CNC(=O)OC(C)(C)C)[C@H](NC(=O)[C@@H](N)Cc1ccccc1)C(=O)O	93.8%	93.9%	103%	1	26.3%	–
Cc1ccc(S(=O)(=O)N[C@@H](Cc2ccccc2)C(=O)CCl)cc1 [TPCK]	–	–	–	–	–	5.05 µM
O=C(N[C@@H](Cc1ccccc1)C(=O)N[C@@H](CO)C(=O)O)OCc1ccccc1	75.8%	99.9%	119%	1.2	18.3%	–
C[C@H](OC(=O)CNC(=O)OC(C)(C)C)[C@H](NC(=O)[C@H](Cc1ccccc1)NC(=O)OCc1ccccc1)C(=O)O	114%	83.9%	122%	0.9	-4.1%	–
CC(C)(C)OC(=O)NCC(=O)OC[C@H](NC(=O)[C@H](Cc1ccccc1)NC(=O)OCc1ccccc1)C(=O)O	142%	92.1%	136%	1.1	-5.2%	–
CC(C)(C)OC(=O)NCC(=O)OC[C@H](NC(=O)[C@@H](N)Cc1ccccc1)C(=O)O (H-Phe-Ser([Gly-Boc])-OH)	104%	99.4%	121%	2.4	14.8%	–
C[C@H](NC(=O)OCc1ccccc1)C(=O)n1nnc2ccccc21	104%	106%	126%	1	32.6%	–
